Test results taken from patent publication US10576078B2 (Council of Scientific & Industrial Research, priority 2017, dated 2020).
Read-outs that look alike come from different tables or passages of the source.

What was measured:
[1] = test system: K562 cells; test: K562 cell viability, CellTiter-Glo luminescent assay; assay type: cell-based, Human; settings: Homo sapiens, 48 h
Description: K562 cells were treated with indicated concentrations of CFZ for 24 h or 48 h, cell viability was then assessed using the CellTiter-Glo luminescent cell viability assay (Promega). Data is mean±SEM of three independent experiments (each in triplicates). IC50 was calculated using Graphpad prism 5 software.
K562 cells were treated as indicated for 48 h and cell viability was determined by CellTiter-Glo luminescent cell viability assay (A) graphical representation of mean±SEM of three independent experiments.
(§1) Determination of CFZ's Effect on Cell Viability and Apoptosis • a. CellTitre-Glo assay: Cell viability (in FIG. 1B, FIG. 4 and FIG. 6A) assays was performed using the ATP-based CellTiter-Glo Luminescent cell viability assay (Promega Madison, Wis.) as per the manufacturer's instruction. Briefly, (1.25×10^5) K562 cells/ml (FIG. 1B and FIG. 4) or CD34+ cells from healthy donors (FIG. 6A) were cultured in 48-well plates and were treated as indicated in the respective figures and figure descriptions (vehicle; V=0.1% DMSO). Cells were then incubated with CellTitre-Glo reagent for 15 min. Luminescence was recorded in a GloMax-96 Microplate luminometer (Promega, Madison, Wis.) with an integration time of 1 s per well. • b. Analysis of apoptosis by Annexin V staining and flow cytometry • K562 (FIG. 1C-D) and primary CP-CML cells (FIG. 1H-I) were cultured in 6 well plates (2×10^5 cells/well) and were treated with indicated concentrations of compounds as described in respective figures and their descriptions. Cells were then harvested and washed, and incubated in binding buffer (Annexin V Binding Buffer, BD Pharmingen) with 0.3% Annexin V-FITC and PI for 15 min at room temperature in dark. Apoptosis was measured by FACSCalibur flow cytometer (Becton Dickenson, San Jose, Calif.). • c. TUNEL assay • Pro-apoptotic potential was analysed using a Fluorometric APO-BrdU™ TUNEL Assay Kit (Invitrogen) according to the manufacturer's protocol (FIG. 1F). Cells were treated with Vehicle (0.1% DMSO) or CFZ (5 μM) for 48 h. Cells were then fixed in formaldehyde (4%) for 25 min at 4° C., permeabilized with 0.2% Triton-X100 and washed with PBS. Cells were then incubated in Terminal Deoxynucleotidyl Transferase (TdT) reaction buffer without TdT enzyme for 7 minutes at room temperature and then in TdT buffer with TdT enzyme at 37° C. in dark. After termination of TdT reaction, cells were stained with 5 μg/ml of PI for 15 min in dark followed by washing and analysed with fluorescence microscopy.

[2] = test system: CD34+ cells from imatinib-resistant patients (quiescent LSCs); test: CFSE assay of quiescent LSCs; assay type: cell-based, Human; settings: n=3, 96 h
Description: Cells were gated depending on CFSE intensity. […] Apoptosis in these cells was determined by annexin V staining.
For assessing apoptosis in quiescent LSCs, purified CD34^+ cells were first stained with carboxyfluorescein succinimidyl ester (CFSE; Invitrogen) for 30 min. Cells were then washed and resuspended in SFM medium with 5 growth factors and were kept at 37° C. overnight. Next day, cells were treated as indicated in SFM medium with growth factors and were maintained further for 4 days with supplementation of the drugs every 48 h (drug concentrations in FIG. 5 and its description). Cells were then harvested, washed, and were labeled with CD34-PE and Annexin-APC antibodies and then gated into non-dividing cells (CD34^+CFSE^bright) and dividing cell (CD34^+CFSE^dim) population based on CFSE fluorescence intensity. […] Number of cells or apoptosis was determined by flowcytometry.

[3] = rat, in vivo, po
From the text: (§2) Sprague-Dawley rats (n=6 per group) were divided into 3 groups. […] Plasma was separated and processed for analysis by LC-MS/MS. For pharmacokinetic and statistical analysis, plasma concentration versus time data were plotted and analyzed by non-compartmental analysis method using WinNonlin (Pharsight, Mountain View, Calif.) software.
as §2, with “For this SD” for “Sprague-Dawley”

[4] = test system: CD34+ cells from healthy donors
Description: as §1

[5] = test system: CrkL; test: Immunoblotting of CrkL phosphorylation in K562 cells; assay type: cell-based, Human; settings: 30 min, Y207
Description: K562 cells were treated as indicated for 30 min and stat5 phosphorylation at Y694 or CrkL phosphorylation at Y207 were assessed by immunoblotting. Total stat5 or β-actin expression was assessed to ensure equal loading. Pio was used as a negative control and IMT was used as a positive control. Data is one representative of 3 independent experiments.
K562 cells were cultured in 6 well plates and treated as indicated in figures or descriptions of FIG. 1E, FIG. 1G and FIG. 2D-E. Cells were then homogenized in lysis buffer containing 50 mM Tris-HCl, pH 7.5, 150 mM NaCl, 1% NP40, 5 mM EDTA, 1 mM DTT, protease and phosphatase inhibitor cocktails (Sigma) and incubated on ice for 30 min followed by 5 cycles of freeze-thaw. Samples were then centrifuged at 14000 rpm at 4° C. for 30 min. Supernatants were then quantified by Bichinchonic acid (Sigma)-based protein estimation. Equal amount of proteins were solubilized in Laemmli buffer, and were resolved by 10%-12% SDS PAGE and transferred onto PVDF membranes (Millipore; Billerica, Mass.). Membranes were blocked in 5% (w/v) non-fat dried milk powder (Sigma) in PBS containing 0.2% Tween 20 (Sigma). […] Immunoreactivity was detected using a chemiluminescent HRP Substrate (Millipore) in a LAS 4010 Chemi-doc Imager (GE Healthcare, Little Chalfont, UK). […]

Structure (SMILES) | IC50 ([1]; drug alone, FIG. 4A, read-out: IC50, K562 cell viability assay (48 h)) [nM] | IC50 ([1]; in presence of CFZ, read-out: IC50 of dasatinib in presence of CFZ) [nM] | number of CFSE-bright (non-dividing) cells [2] | Tmax in combination group compared to individual groups [3] | viability of CD34+ hematopoietic progenitor cells from healthy controls [4] | CrkL phosphorylation [5]
Cc1nc(Nc2ncc(C(=O)Nc3c(C)cccc3Cl)s2)cc(N2CCN(CCO)CC2)n1 [dasatinib, Dasatinib] | 640 | 12.4 |  |  |  | 
Cc1ccc(NC(=O)c2ccc(CN3CCN(C)CC3)cc2)cc1Nc1nccc(-c2cccnc2)n1 [imatinib, Imatinib] |  |  | failed to reduce | no change | No loss of survival | successfully inhibited
